Results from patent publication US8778871B2 (Takeda Pharmaceutical Company Limited, priority 2004, dated 2014).
Non-standard residues stand in square brackets, D forms with d. No end group written: not given here. Arg(Me) = CNC(=N)NCCC[C@H](N)C(=O)O; Abu = CC[C@H](N)C(=O)O; azaGly = NNC(=O)O

How the values were obtained:
hOT7T175 [1] = biological target: T1, hOT7T175 (Homo sapiens, UniProt Q969F8, L364H); assay type: cell-based; conditions: hOT7T175/CHO, FLIPR, evaluation for 40 seconds after initiation of the reaction
T1 construct: expressed in transfected cells
Description: The intracellular Ca ion level-increasing activity was measured using FLIPR as in TEST EXAMPLE 2.

hOT7T175 [2] = biological target: T2, hOT7T175 (Homo sapiens, UniProt Q969F8); assay: Intracellular Ca ion level-increasing activity using FLIPR (180 seconds; specific activity to Metastin (1-54)); assay type: cell-based; conditions: hOT7T175/CHO, change in intracellular calcium ion level for 180 seconds, Tables 21-23
T2 construct: expressed in transfected cells
T2 sequence (Q969F8 whole entry L364H): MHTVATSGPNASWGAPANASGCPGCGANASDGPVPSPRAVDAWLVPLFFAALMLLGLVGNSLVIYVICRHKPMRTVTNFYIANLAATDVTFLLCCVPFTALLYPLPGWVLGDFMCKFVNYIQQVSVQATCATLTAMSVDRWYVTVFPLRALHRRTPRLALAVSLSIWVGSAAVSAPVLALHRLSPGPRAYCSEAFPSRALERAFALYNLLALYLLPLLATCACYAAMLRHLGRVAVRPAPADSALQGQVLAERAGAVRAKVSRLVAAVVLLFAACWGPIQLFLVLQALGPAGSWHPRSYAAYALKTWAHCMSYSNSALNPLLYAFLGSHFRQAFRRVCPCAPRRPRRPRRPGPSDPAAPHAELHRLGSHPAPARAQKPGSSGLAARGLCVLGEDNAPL

T1 sequence (Q969F8 whole entry L364H): as above

| Substance | Specific Act. (EC50/MS10 EC50) (hOT7T175 [1]) | intracellular Ca ion level-increasing activity [specific activity to Metastin (1-54)] (hOT7T175 [2]) |
| --- | --- | --- |
| D-Tyr-D-Pya(4)-Asn-Ser-Phe-AzaGly-Leu-Har-Trp-NH2 [Compound No. 481] | 2.4 | 5 |
| D-Tyr-D-Pya(4)-Asn-Trp-Phe-AzaGly-Leu-Arg(Me)-Trp-NH2 [Compound No. 491] | 1.0 | 7 |
| D-Tyr-D-Pya(4)-Ser-Phe-AzaGly-Leu-Arg(Me)-Trp-NH2 [Compound No. 494] | 8.6 | ⅓ |
| D-Tyr-D-Pya(4)-Thr-Ser-Phe-AzaGly-Leu-Arg(Me)-Trp-NH2 [Compound No. 493] | 2.2 | 2 |
| D-Tyr-Pya(4)-Ala-Ser-Phe-AzaGly-Leu-Arg(Me)-Trp-NH2 [Compound No. 502] | 1.4 | 10 |
| D-Tyr-Pya(4)-Asn-Ser-Phe-AzaGly-Leu-Arg(Me)-Phe-NH2 [Compound No. 490] | 6.2 | 3 |
| Dap-D-Tyr-Asn-Trp-Asn-Ser-Phe-Gly-Leu-Arg(Me)-Phe-NH2 [Compound No. 387] | 5.0 | 1 |
| Dibenzylcarbamoyl-AzaGly-Leu-Arg(Me)-Trp-NH2 [Compound No. 393] | 5.9 | 1 |
| Dimethylcarbamoyl-Phe-AzaGly-Leu-Arg(Me)-Trp-NH2 [Compound No. 467] | 4.0 | 1 |
| Diphenylacetyl-AzaGly-Leu-Arg(Me)-Trp-NH2 [Compound No. 378] | 10.4 | ½ |
| Isobutyryl-Phe-AzaGly-Leu-Arg(Me)-Trp-NH2 [Compound No. 438] | 3.0 | 3 |
| Pyridazine-4-carbonyl-Phe-AzaGly-Leu-Arg(Me)-Trp-NH2 [Compound No. 480] | 8.3 | 1 |
| Pyrimidine-2-carbonyl-Phe-AzaGly-Leu-Arg(Me)-Trp-NH2 [Compound No. 479] | 2.6 | 5 |
| Pyrimidine-4-carbonyl-Phe-AzaGly-Leu-Arg(Me)-Trp-NH2 [Compound No. 475] | 4.2 | 3 |
| Pyrrole-2-carbonyl-Phe-AzaGly-Leu-Arg(Me)-Trp-NH2 [Compound No. 455] | 4.1 | 5 |
| Pyrrole-3-carbonyl-Phe-AzaGly-Leu-Arg(Me)-Trp-NH2 [Compound No. 474] | 3.2 | 5 |
| [dY][dF]ASF[azaGly]L[Arg(Me)]W-NH2 [Compound No. 514] | 0.7 | 10 |
| [dY][dW]ASF[azaGly]L[Arg(Me)]W-NH2 [Compound No. 503] | 0.4 | 10 |
| [dY][dW]ATF[azaGly]L[Arg(Me)]W-NH2 [Compound No. 511] | 0.5 | 10 |
| [dY][dW][Abu]SF[azaGly]L[Arg(Me)]W-NH2 [Compound No. 513] | 0.4 | 20 |
